The values that follow come from patent publication US11654036B2, “Anticoagulant compounds and methods and devices for their use” (priority 2020, dated 2023).

The nature of series [1]: Tissue drug concentration in stented and adjacent artery segments (LCMS). It counts as in vivo, porcine. The note with it: pig, artery tissue adjacent to the stented segment, other: drug eluting stent implanted in coronary artery, Table 4B, stent arm not named; for concentration at 3 h: within 3 hours; for concentration at 28 days: within 28 days; for concentration at 90 days: within 90 days. From the text:
The stented artery was cut longitudinally with surgical scissors. The stents were separated from the tissue.

A short description of series [2]: Coated balloon tissue concentration in vivo (Table 7). Details: species or system porcine. The note with it: for concentration at 15 min: 300 μg. From the text:
The balloon (e.g., the balloon of a balloon-catheter of a stent-delivery system) was advanced to a site to be treated (e.g., an occluded or weakened section of a blood vessel to be opened up or supported by a stent) in the body of a subject and inflated to a desired inflation diameter. Before, during, and/or after inflation of the balloon, the balloon released the therapeutic composition to, into, or at the treatment site, or to, into, or at an area adjacent thereto, by any suitable mechanism (e.g., concentration gradient, diffusion, pressure, or mechanical force, or a combination thereof). […] The tissue concentration is shown in ng/mg tissue. The coated balloons were evaluated for drug delivery efficiency in an animal study. Drug transfer of the coated balloons into arterial segments were evaluated using harvested pig arteries. The arterial wall was separated after animal study. The arterial walls were then stored in an individual labeled vial. All samples were kept on dry ice until stored in the −80° C. freezer. All samples were then frozen to […] prior to being analyzed.

Series [3] relates to Tissue factor generated antiplatelet. To be noted: cited from earlier work.
The test system of series [4] is Calcium-reconstituted sheep blood. Description: Activated clotting time (ACT). The note with it: individual drug at 0.6 ng/mg. Here is the method: The activated clotting time (ACT) evaluation of anticoagulants was performed in Calcium-reconstituted sheep blood and recorded employing the Hemochron® Response device. […] A target amount of drug solution was then added into the test tube. […] The tube was gently shaken before being inserted into the Hemochron Response detector. The ACT read out was recorded and reported. The ACT of the control blood in the absence of any drug as first determined to establish a baseline. Then ACT was determined in the presence of different concentrations of the drug as a single component. Selected drug combinations, were then tested to evaluate for potential synergy in action between the two drugs.

Series [5] relates to Human Aortic SMC (HAoSMC). Description: HAoSMC cell proliferation assay. The format is cell-based. To be noted: 72 hours incubation.
Description: Cell proliferation assay was done in 96-well format. Low passage cells were trypsinized and seeded in 96 well plates at a density of ˜4000 cells/well. The cells are allowed to attach overnight in a CO2 incubator. Next day, the medium was removed and replaced with fresh complete medium containing various concentrations of the test compounds. The final concentration of vehicle (DMSO) in the test medium was 0.1%. After adding test compounds, the cells were incubated for 72 hours. Following this period, the medium was removed and then added fresh medium (100 μl) containing CellTiter Aqueous (lx concentration final) to the wells and incubated for 2 hours in the CO2 incubator. At the end of incubation measured fluorescence with a plate-reader. Controlled incubations with untreated cells and blank incubations containing only medium were included and tested similarly. Based on the cell viability assay the percentage inhibition of the cell proliferation was determined at the different concentrations of the drug tested.

Where two headings read alike, the source gives them in different places.

As usually defined, the IC50 is the midpoint of a concentration-inhibition curve. In series [1], `O=C(NC[C@H]1CN(c2ccc(N3CCOCC3=O)cc2)C(=O)O1)c1ccc(Cl)s1` [Rivaroxaban] registered a concentration at 3 h of around 21000 ng/g and a concentration at 28 days of around 340 ng/g. This molecule returned a concentration at 1 h in series [1] (within one hour from injury and/or implant) of around 38000 ng/g. Moreover, the concentration at 15 min in series [2] (pig, Superficial Femoral Artery (SFA) tissue, within or at 15 minutes, read-out: tissue concentration of tissue adjacent to the balloon treated segment) was at least 40600 ng/g. Besides, the concentration at 15 min in series [2] (pig, coronary artery tissue, within or at 15 min, read-out: tissue concentration of tissue adjacent to the balloon treated segment) is at least 1230 ng/g. Moreover, in series [3], the IC50 is 312 nM and the “IC50 for Tissue factor generated antiplatelet” value was 0.136 ng/mg.
For the molecule `COc1ccc(-n2nc(C(N)=O)c3c2C(=O)N(c2ccc(N4CCCCC4=O)cc2)CC3)cc1` [Apixaban], in series [4], the ACT turned out to be 522.
In series [1], `CO[C@H]1C[C@@H]2CC[C@@H](C)[C@@](O)(O2)C(=O)C(=O)N2CCCC[C@H]2C(=O)O[C@H]([C@H](C)C[C@@H]2CC[C@@H](O)[C@H](OC)C2)CC(=O)[C@H](C)/C=C(\C)[C@@H](O)[C@@H](OC)C(=O)[C@H](C)C[C@H](C)/C=C/C=C/C=C/1C` [Sirolimus, rapamycin (also called sirolimus)] had a concentration at 3 h of around 27000 ng/g, a concentration at 28 days of around 940 ng/g and a concentration at 90 days of around 1280 ng/g. Further, the concentration at 7 days in series [2] (pig, coronary artery tissue, within or at 7 days, read-out: tissue concentration of tissue adjacent to the balloon treated segment) was at least 1450 ng/g.
Take `CO[C@@H]1C[C@H](C[C@@H](C)[C@@H]2CC(=O)[C@H](C)/C=C(\C)[C@@H](O)[C@@H](OC)C(=O)[C@H](C)C[C@H](C)/C=C/C=C/C=C(\C)[C@@H](O)C[C@@H]3CC[C@@H](C)[C@@](O)(O3)C(=O)C(=O)N3CCCC[C@H]3C(=O)O2)CC[C@H]1O` [Novolimus, 16-O-desmethyl-rapamycin]: the “tissue concentration of tissue adjacent to the balloon treated segment” value in series [2] (Superficial Femoral Artery (SFA) tissue, within or at 6 hours) is listed as “at least 5.94 ng/mg”; in series [2] (Superficial Femoral Artery (SFA) tissue, within or at 3 day) it was “at least 4.4 ng/mg”; in series [2] (Superficial Femoral Artery (SFA) tissue, within or at 7 days), “at least 1.16 ng/mg”; in series [2] (coronary artery tissue, within or at 6 hours), “at least 6.52 ng/mg”; in series [2] (coronary artery tissue, within or at 3 day), “at least 3.77 ng/mg”; in series [2] (coronary artery tissue, within or at 7 days), “at least 1.47 ng/mg”.
For `CC1CNc2c(cccc2S(=O)(=O)N[C@@H](CCCNC(=N)N)C(=O)N2CC[C@@H](C)C[C@@H]2C(=O)O)C1` (some centres unmarked) [Argatroban], in series [5], the HAoSMC proliferation inhibition result was “small to no inhibition”. In addition, the ACT in series [4] came to 301. This molecule also came in with a concentration at 90 days in series [1] of around 3740 ng/g. In series [3], the IC50 was 79 nM and the “IC50 for Tissue factor generated antiplatelet” value is reported as 0.04 ng/mg.
